The results in this text go back to patent EP0405436B1, “Dihetero nitrogen-containing cycloheteroethanoanthracene derivatives as antipsychotic agents” (G.D. Searle & Co., priority 1989, dated 1991).

One assay concerns the target sigma receptor (Rattus norvegicus, UniProt Q9R0C9). In kind it is binding, male Sprague-Dawley rats. The protocol:
To determine the effects of the compounds in a sigma receptor assay, crude membrane preparations were prepared as follows. Brains from male Sprague-Dawley rats were homogenized in 10 volumes (wt/vol) of 0.32 M sucrose, using a Polytron grinder. The homogenate was centrifuged at 900 X G for 10 minutes at 4°C. The supernatant was collected and centrifuged at 22,000 X g for 20 minutes at 4°C. The pellet was resuspended in 10 volumes of 50 mM Tris/HCl buffer (pH 7.4) and centrifuged at 22,000 X g for 20 minutes at 4°C. The pellet was resuspended in 5 mM Tris/HCl buffer (pH 7.4) to give a final concentration of 250 mg/ml of the crude material. Incubation tubes were prepared in triplicate and contained 0.1 ml of tissue suspension, 2 nM of [³H]-(+)-1-propyl-3-(3-hydroxyphenyl)piperidine {[³H]-3-(+)-PPP}, and varying concentrations of the displacing ligand (0.1-1000 nM) in a final volume of 0.5 ml. After a 1 hr incubation at room temperature, the contents of the test tubes were filtered through GS filter paper which had been presoaked for at least 2 hours in 0.05% polyethyleneimine. The test tubes were rinsed three times with Tris/HCl buffer. Radioactivity on the filters was determined using […] [Biochem. Pharmacol., 22, 3099-3108, 1973].

The test system of assay [1] is apomorphine-induced climbing. As to the kind of experiment: Blockade of apomorphine-induced climbing. In kind it is in vivo, Swiss-Webster mice. The conditions noted are these: Mus musculus; mice, i.p. or s.c. pretreatment; 2 mg/kg apomorphine s.c.; rated at 10 and 20 minutes; read-out: Blockade of Apomorphine-induced Climbing ED₅₀. On the procedure:
Compounds of the invention were evaluated for their ability to block apomorphine-induced climbing. The evaluation of the compounds followed the method outlined by Protais [Psychopharmacol., 50, 1-6, 1976]. Swiss-Webster mice, weighing 20-25 g, are pretreated with the compounds of the invention by i.p. or s.c. administration at various times before 2 mg/kg apomorphine is administered s.c in a volume of 1 ml/kg. All test compounds are administered in a volume of 10 ml/kg. Mice are rated at 10 and 20 minutes after apomorphine administration using the following rating scale: (0) forepaws on the floor, (1) forefeet holding the bars, and (2) four paws holding bars. Dose-response curves are analyzed by a computerized Finney assay [Statistical Methods in Biological Assays, 2nd Edn., Hatner Pub. Co., New York (1964)].

Where [2] appears, read: read-out: Ki apparent (nM) (units ± SEM); rat brain membranes, 2 nM [³H]-3-(+)-PPP, 1 hr at room temperature, displacing ligand 0.1-1000 nM.

Structures are written as SMILES. Where two headings read alike, the source gives them in different places. A value given as a limit tells only on which side of the number the result lay.

Chain of sigma receptor (Q9R0C9 whole entry): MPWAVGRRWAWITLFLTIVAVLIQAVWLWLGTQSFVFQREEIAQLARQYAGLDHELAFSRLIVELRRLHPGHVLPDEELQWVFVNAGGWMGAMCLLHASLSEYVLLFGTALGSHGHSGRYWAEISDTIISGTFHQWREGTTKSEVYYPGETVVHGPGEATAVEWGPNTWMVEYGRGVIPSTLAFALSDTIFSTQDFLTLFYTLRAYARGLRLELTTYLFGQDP

For `CN1CCN(C(=O)C2CC3c4ccccc4C2c2ccccc23)CC1` (stereo not drawn) [Compound No. 5, reference compound], the Ki at sigma receptor (rat brain membranes, 2 nM [³H]-3-(+)-PPP, 1 hr at room temperature, displacing ligand 0.1-1000 nM; read-out: Ki apparent (nM) (units ± SEM)) was greater than 1000 nM.

`c1ccc2c(c1)C1CC(CN3CCN4CCCC4C3)C2c2ccccc21` (stereo not drawn) [Compound No. 4, 4-[(9,10-dihydro-9,10-ethanoanthracenyl)methyl]-1,4-diazabicyclo[4.3.0]nonane]: on sigma receptor (setting [2]), the Ki was determined as 20 ± 3 nM. Consider `CN1CCN(CC2CC3c4ccccc4C2c2ccccc23)CC1` (stereo not drawn) [Compound No. 1, 4-[(9,10-Dihydro-9,10-ethanoanthracenyl)methyl]-1-methylpiperazine], for which the Ki on sigma receptor (setting [2]) turned out to be 120 ± 20 nM. Further, in assay [1], the ED50 turned out to be 1 mg/kg. The like results for `OCCN1CCN(CC2CC3c4ccccc4C2c2ccccc23)CC1` (stereo not drawn) [Compound No. 2, 4-[(9,10-dihydro-9,10-ethanoanthracenyl)methyl]-1-(2-hydroxyethyl)-piperazine] were, in that order, 21 ± 6 nM and 1 mg/kg. The like results for `c1ccc(CN2CCN(CC3CC4c5ccccc5C3c3ccccc34)CC2)cc1` (stereo not drawn) [Compound No. 6, 4-[(9,10-Dihydro-9,10-ethanoanthracenyl)methyl]-1-benzylpiperazine] were, in that order, 98 ± 18 nM and 10 mg/kg.

Take `c1cnc(N2CCN(CC3CC4c5ccccc5C3c3ccccc34)CC2)nc1` (stereo not drawn) [Compound No. 3, 4-[(9,10-Dihydro-9,10-ethanoanthracenyl)methyl]-1-(2-pyrimidyl)piperazine]: on sigma receptor (setting [2]), the Ki is greater than 1000 nM.
